Measured values taken from US9067896B2, “Crystalline forms of 3-(2,6-dichloro-3,5-dimethoxy-phenyl)-1-{6-[4-(4-ethyl-piperazin-1-yl) -phenylamino]-pyrimidin-4-yl}-1-methyl-urea and salts thereof” (Novartis AG, priority 2009, dated 2015).
Structures can show the parent of a compound that is named as a salt. Where two headings read alike, the source gives them in different places.

Assays:
Solid state stability = assay type: physicochemical; settings: one week at 80° C., sealed containers and 75% relative humidity, alone and with excipients as 1% mixture
Description: In the solid state, the samples were stressed for one week at 80° C., in sealed containers and under 75% relative humidity. […] The amount of degradation products of the anhydrous free base as assessed by HPLC was 1% or less (based on peak area), while the degradation of the phosphate salt accounted for 1.4% or less.

Solution stability = assay type: physicochemical; settings: 1 week at 50° C.
Description: The solution stability of the free base was tested in buffers ranging from pH 1 to pH 9 for 1 week at 50° C. At pH 5 and higher, the free base was stable, and after accounting for minor initial impurities, degradation was less than 2%. At pH 3, degradation was about 4% and at pH 1, degradation was about 15%. The stability was also tested in water and several organic solvents (1 week at 50° C.).
Without being bound by mechanism, the stability difference between the free base and phosphate salt may be due to the higher aqueous solubility of the phosphate salt compared to the free base, as well as the tendency of the phosphate salt to cause the pH of water to decrease, which may increase the rate of degradation.

[1] = Polymorphic stability by XRPD (equilibration, crystallization, evaporation, precipitation, compression, granulation); assay type: physicochemical; parameters: key to XRPD Result, crystallization by evaporation: —: no change detected; settings: for XRPD Result, crystallization by evaporation: unstirred; for XRPD after crystallization from hot saturated solution: dissolved at 60° C., cooled in ice bath
Description: Slurries of samples were stirred at high speed for 24 hours at 25±0.5° C., filtered, and the solid collected analyzed by XRPD.
About 20 mg of the phosphate salt (form A) was equilibrated with 2 ml of a variety of solvents for at least 24 h at room temperature. Then the solution was filtered and the residue dried overnight at 50° C. under house vacuum. The solid obtained was investigated by XRPD. […]
About 20 mg of the phosphate salt (form A) was also equilibrated at about 50° C. with 2 ml solvent for at least 24 h. Then the solution was filtered and the residue dried overnight at 50° C. under house vacuum. The solid obtained was investigated by XRPD.
About 20 mg of the phosphate salt (form A) was dissolved in 2 ml solvent at 60° C. The solution was filtered. The clear filtrate obtained was cooled in an ice bath and agitated. The precipitate was collected on a filter, dried and investigated by XRPD.
About 20 mg of the phosphate salt (form A) was mixed with 2 ml solvent at 25° C. After stirring overnight, the solution was filtered. The filtrate was placed under nitrogen flow to evaporate the solvent. The residual solid was collected and investigated. The above evaporation was performed without stirring. Upon evaporation from THF/water (1:1) without stirring, a solid with XRPD pattern similar to that of the B form (see FIG. 1C), was obtained once. Subsequently, under these conditions, amorphous material, rather than form B, was obtained.
The same experiments (as described above for the 25° C. evaporation) were performed at 50° C.
Two different solvent combinations were tested. The phosphate salt (form A) was dissolved in DMSO where its solubility was high. A solvent (the anti-solvent) in which the form A was highly insoluble was added to the solution. The precipitate was collected on a filter, dried, and investigated by XRPD.
The phosphate salt (form A, 300 mg) was compressed for 5 minutes at 4000 pounds with a hydraulic press (diameter of the tablets 8 mm).
A solvent (water or ethanol) was added drop wise to the phosphate salt (form A) placed in a mortar until the solid in the mortar was sufficiently wet, and ground using a pestle until a paste-like consistency was obtained. The paste was dried at around 40° C. and under reduced pressure for >8 hours.

[2] = Hygroscopicity from DVS sorption/desorption isotherms; assay type: physicochemical
Description: Hygroscopicity was measured from sorption/desorption isotherms using Surface Measurement System DVS-1 at 25±0.5° C. Samples were evaluated at various humidities including 75%, 85%, and 95%.
The free base (anhydrous and monohydrate) and its phosphate salt (form A) were subjected to sorption and desorption cycle using a VTI brand instrument. The solids were collected after the experiment and analyzed. […] The DVS plots are shown in FIGS. 4A (free base, anhydrous), 4B (phosphate salt (form A) and 4C (free base, monohydrate). The maximum water uptake for the phosphate salt (form A) was less than 2% (i.e. 0.7%) at 25° C. up to 95% relative humidity (rh) (see Table 9). The maximum water uptake for the monohydrate was less than 1.4% at 25° C. up to 95% RH. The monohydrate with an approximate water content of 3% could not be completely dried during the experiment but the water that could be removed was reversibly reabsorbed. The plateau of existence of the monohydrate form is found to be within 10% and 95% RH with a slight hysteresis at the second desorption cycle.

[3] = Pharmacokinetics / bioavailability in rats; assay type: in vivo; settings: for concentration at 8 h: read-out: Clast [μmol/L ± SE]; for Cmax: read-out: Cmax [μmol/L ± SE]
Description: The higher water solubility of the phosphate salt compared to the free base (and other acid salts, as described above) led to the development of a solution formulation (or composition), which would not be feasible with the free base due to solubility restrictions. For this experiment, the phosphate salt was prepared as follows. In a glass vial, 10.7 mg of the free base was dissolved in 4 ml THF. Phosphoric acid (1.76 ml) in acetone (0.01M) was added. The mixture was warmed to 50° C. for about 2 minutes. The vial was left open for partial evaporation at room temperature. Overnight, a suspension was formed, which was filtered yielding about 5.5 mg of an off-white powder. The bioavailabilities, in rats, of the active agents (the free base and its phosphate salt), formulated variously, are tabulated below (Table 10).

[4] = Relative humidity 5%, after the 95% step
[5] = Relative humidity 5%, before the 95% step
[6] = Relative humidity 25%, after the 95% step
[7] = Relative humidity 25%, before the 95% step
[8] = Relative humidity 50%, after the 95% step
[9] = Relative humidity 50%, before the 95% step
[10] = Relative humidity 75%, after the 95% step
[11] = Relative humidity 75%, before the 95% step
[12] = Relative humidity 85%, after the 95% step
[13] = Relative humidity 85%, before the 95% step
[14] = rat, in vivo, po, 8.57 mg/kg, rats, phosphate salt p.o., supension (water containing 0.5% HPMC) [8.57 mg/kg]
[15] = rat, in vivo, po, 10 mg/kg, pH 4.7, rats, p.o., solution (PEG300/acetate buffer pH 4.7 1:1) [10 mg/kg]
[16] = rats, p.o., solution (PEG300/acetate buffer pH 4.7 1:1) [10 mg/kg]
[17] = rats, phosphate salt p.o., supension (water containing 0.5% HPMC) [8.57 mg/kg]

CCN1CCN(c2ccc(Nc3cc(N(C)C(=O)Nc4c(Cl)c(OC)cc(OC)c4Cl)ncn3)cc2)CC1 [Phosphate salt (form A)]
amount of degradation products by HPLC (peak area) (Solid state stability): ≤ 1.4%
degradation in solution (Solution stability; 1:1 acetonitrile/water, listed as phosphate salt): ~70%
degradation in solution (Solution stability; acetonitrile, form A): stable
degradation in solution (Solution stability; methanol, form A): about 8%
degradation in solution (Solution stability; water, listed as phosphate salt): about 45%
XRPD after compression ([1]; 300 mg, 5 minutes at 4000 pounds, hydraulic press): No change of crystalline modification
XRPD after crystallization by evaporation ([1]; 25° C., solution stirred during evaporation): form A was consistently obtained
XRPD after crystallization by evaporation ([1]; 25° C., without stirring, 1:1 solutions of water with ethanol, 2-propanol, acetone, tetrahydrofuran): amorphous material was obtained
XRPD after crystallization by evaporation ([1]; 50° C., solution stirred): Form A was also obtained
XRPD Result, crystallization by evaporation ([1]; 50° C., 2-propanol/water 1:1): —
XRPD Result, crystallization by evaporation ([1]; 50° C., Acetone/water 1:1): —
XRPD Result, crystallization by evaporation ([1]; 50° C., Acetonitrile/water 1:1): Amorphous
XRPD Result, crystallization by evaporation ([1]; 50° C., Ethanol/water 1:1): Amorphous
XRPD Result, crystallization by evaporation ([1]; 50° C., Methanol/water 1:1): —
XRPD Result, crystallization by evaporation ([1]; 50° C., Tetrahydrofuran/water 1:1): —
XRPD after equilibration with solvents ([1]; at least 24 h at about 50° C., solvents of Table 7): No new XRPD pattern was observed
XRPD after equilibration with solvents ([1]; at least 24 h at room temperature, solvents of Table 6): No new XRPD pattern was observed
XRPD after crystallization from hot saturated solution ([1]; 1:1 solutions of water with methanol, ethanol, 2-propanol, acetone, tetrahydrofuran): No change in polymorphic form
XRPD after crystallization from hot saturated solution ([1]; DMSO): form change noted
XRPD after precipitation by addition of anti-solvent ([1]; dissolved in DMSO, anti-solvents methanol, ethanol, isopropanol, acetone, acetonitrile, THF, ethyl acetate, propyl acetate, toluene, methyl t-butyl ether, 1,4-dioxane, methylene chloride): No change in Form
XRPD after granulation ([1]; wetted with water or ethanol, ground, dried at around 40° C.): no changes in the XRPD spectra
weight gain due to water absorption (DVS) ([2]; 75% RH, listed as phosphate salt): < 1%
weight gain due to water absorption (DVS) ([2]; 85% RH): < 1%
weight gain due to water absorption (DVS) ([2]; 95% RH, listed as phosphate salt): < 2%
Adsorption Weight Gain (%) ([2]; Relative humidity 0%): 0.000%
Desorption Weight Gain (%) ([2]; Relative humidity 0%): 0.000%
Adsorption Weight Gain (%) [2, 4]: 0.000%
Desorption Weight Gain (%) [2, 4]: 0.048%
Adsorption Weight Gain (%) [2, 5]: 0.016%
Desorption Weight Gain (%) [2, 5]: 0.091%
Adsorption Weight Gain (%) [2, 6]: 0.177%
Desorption Weight Gain (%) [2, 6]: 0.447%
Adsorption Weight Gain (%) [2, 7]: 0.165%
Desorption Weight Gain (%) [2, 7]: 0.507%
Adsorption Weight Gain (%) [2, 8]: 0.334%
Desorption Weight Gain (%) [2, 8]: 0.705%
Adsorption Weight Gain (%) [2, 9]: 0.309%
Desorption Weight Gain (%) [2, 9]: 0.738%
Adsorption Weight Gain (%) [2, 10]: 0.467%
Desorption Weight Gain (%) [2, 10]: 1.275%
Adsorption Weight Gain (%) [2, 11]: 0.437%
Desorption Weight Gain (%) [2, 11]: 1.022%
Adsorption Weight Gain (%) [2, 12]: 0.520%
Desorption Weight Gain (%) [2, 12]: 1.421%
Adsorption Weight Gain (%) [2, 13]: 0.495%
Desorption Weight Gain (%) [2, 13]: 1.245%
Adsorption Weight Gain (%) ([2]; Relative humidity 95%): 0.653%
Desorption Weight Gain (%) ([2]; Relative humidity 95%): 1.547%
hygroscopicity (in words) ([2]; listed as phosphate salt): slightly hygroscopic
bioavailability relative to the free base ([3]; oral administration): ~2 fold
AUC(0-inf) [3, 14]: 1.23 µM·h
Tmax [3, 14]: 3 h
concentration at 8 h [3, 14]: 0.062 ± 0.006 µmol/L
Cmax [3, 14]: 0.15 ± 0.031 µmol/L
half-life ([3]; rat, in vivo, po, 8.57 mg/kg, rats, phosphate salt p.o., supension (water containing 0.5% HPMC) [8.57 mg/kg], read-out: t1/2 terminal elimination (converted)): 4.4 h
AUC(0-inf) [3, 15]: 2.52 µM·h
Tmax [3, 15]: 4 h
concentration at 8 h [3, 15]: 0.148 ± 0.018 µmol/L
Cmax [3, 15]: 0.263 ± 0.083 µmol/L
AUC (0-∞) dose ^A [(h · μmol/L)/(mg/kg)] [3, 16]: 0.25 (h · μmol/L)/(mg/kg)
BAV f [%] [3, 16]: 51%
t1/2 terminal elimination [3, 16]: 4.8 h
tlast [3, 16]: 8 h
AUC (0-∞) dose ^A [(h · μmol/L)/(mg/kg)] [3, 17]: 0.14 (h · μmol/L)/(mg/kg)
BAV f [%] [3, 17]: 29 ± 3%
tlast [3, 17]: 8 h
